Our source for the IC50 values is BindingDB's records for doi:10.1021/jm050205o (Abbott Laboratories, 2005).

Molecules are shown by their SMILES.

This assay has as its target T1, Glucocorticoid receptor (Homo sapiens, UniProt P04150).
T1 sequence (P04150 whole entry): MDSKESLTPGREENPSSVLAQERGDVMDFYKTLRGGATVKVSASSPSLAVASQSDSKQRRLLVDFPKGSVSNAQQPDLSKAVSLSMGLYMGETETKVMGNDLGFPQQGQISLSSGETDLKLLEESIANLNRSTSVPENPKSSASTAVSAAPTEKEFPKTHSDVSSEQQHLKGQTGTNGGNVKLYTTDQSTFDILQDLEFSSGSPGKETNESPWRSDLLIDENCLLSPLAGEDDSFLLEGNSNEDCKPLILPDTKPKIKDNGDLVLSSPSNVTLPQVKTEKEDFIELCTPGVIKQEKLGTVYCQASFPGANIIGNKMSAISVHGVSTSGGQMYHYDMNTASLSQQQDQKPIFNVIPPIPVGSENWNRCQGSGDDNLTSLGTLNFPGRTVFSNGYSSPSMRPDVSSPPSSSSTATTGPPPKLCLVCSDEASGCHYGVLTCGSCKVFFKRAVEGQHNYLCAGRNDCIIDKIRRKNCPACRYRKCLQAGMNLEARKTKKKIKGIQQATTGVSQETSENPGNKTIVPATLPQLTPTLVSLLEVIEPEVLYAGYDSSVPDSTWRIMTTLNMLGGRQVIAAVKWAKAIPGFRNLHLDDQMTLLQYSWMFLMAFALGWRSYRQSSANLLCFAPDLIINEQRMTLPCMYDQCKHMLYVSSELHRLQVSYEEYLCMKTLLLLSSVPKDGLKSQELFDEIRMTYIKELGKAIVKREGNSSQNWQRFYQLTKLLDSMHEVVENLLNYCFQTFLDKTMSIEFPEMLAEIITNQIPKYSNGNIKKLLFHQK
As to the kind of experiment: GR Binding Assay and GRAF Assay. The settings on record: pH 8; 4 °C.
Turning to `Cc1c(NS(C)(=O)=O)cccc1N(Cc1ccc(Oc2ccc(F)c(OCC(=O)O)c2)cc1)Cc1ccc(F)cc1F` [2-{5-[4-({[(2,4-difluorophenyl)methyl](3-methanesulfonamido-2-methylphenyl)amino}methyl)phenoxy]-2-fluorophenoxy}acetic acid], the half-maximal inhibitory concentration (IC50) (in general, the concentration that inhibits the measured activity by half) is 440 nM. In turn, `Cc1c(NS(C)(=O)=O)cccc1N(Cc1ccc(Oc2ccc(Br)c(OCC(=O)O)c2)cc1)Cc1ccc(F)cc1F` [2-{2-bromo-5-[4-({[(2,4-difluorophenyl)methyl](3-methanesulfonamido-2-methylphenyl)amino}methyl)phenoxy]phenoxy}acetic acid] had an IC50 of 330 nM. `CC#C[C@]1(O)CC[C@H]2[C@@H]3CCC4=CC(=O)CC[C@]4(Cc4ccc(C)cc4)C3=CC[C@@]21C` [(2R,10S,11S,14S,15S)-14-hydroxy-15-methyl-2-[(4-methylphenyl)methyl]-14-(prop-1-yn-1-yl)tetracyclo[8.7.0.0^{2,7}.0^{11,15}]heptadeca-1(17),6-dien-5-one] returned an IC50 of 43 nM.

For `Cc1c(NS(C)(=O)=O)cccc1N(Cc1ccc(Oc2ccc(Cl)c(OCC(=O)O)c2)cc1)Cc1ccc(F)cc1F` [2-{2-chloro-5-[4-({[(2,4-difluorophenyl)methyl](3-methanesulfonamido-2-methylphenyl)amino}methyl)phenoxy]phenoxy}acetic acid], the half-maximal inhibitory concentration (IC50) came to 500 nM.
